The results in this text go back to patent US9371337B2, “β-lactamase inhibitors” (The Regents of the University of California, priority 2011, dated 2016).

For assay [1], the system named is K. pneumoniae producing the plasmid-mediated class C β-lactamase DHA-1. Description: MIC of third-generation cephalosporins alone and with compounds 4 or 9 (Table 3). It is filed as cell-based, Klebsiella pneumoniae. The settings on record: antibiotic alone. The text has this: (§1) Antimicrobial activity was investigated quantitatively to determine the minimum inhibitory concentrations (MICs) of the β-lactam/inhibitor combination necessary to inhibit the bacterial growth (Table 3). The MICs of β-lactams alone against the strains corresponded to a high level of resistance according to Clinical and Laboratory Standards Institute (CLSI) standards. (Clinical and Laboratory Standards Institute, Performance standards for antimicrobial susceptibility testing, 20th Informational Supplement, M100-S20 2010) The compounds had no measurable antibiotic activity when used alone.
(§2) Susceptibility testing was performed and interpreted following the guidelines of CLSI. (Clinical and Laboratory Standards Institute, Performance standards for antimicrobial susceptibility testing, 20th Informational Supplement, M100-S20 2010) The compounds were dissolved in 50% DMSO, and dilutions were performed using Muller-Hinton medium. An adequate final concentration was obtained to determine the minimum inhibitory concentrations (MICs). The concentration of DMSO was maintained below 5%. The inhibitors were tested for synergy with the third-generation β-lactams ceftazidime and cefotaxime against several clinical bacteria. […] Each value reported reflects the average of three independent experiments. […] A Klebsiella pneumoniae isolate produced the inducible plasmid-mediated class C enzyme DHA-1. The Friedman's test and the Wilcoxon signed rank test were used to compare MIC values. Statistical significance was established at p<0.05.

Assay [2] deals with CTX-M-14-producing E. coli. Description: MIC of third-generation cephalosporins alone and with compounds (Table 6). It counts as cell-based, Escherichia coli. To be noted: antibiotic alone. The method, then: (§3) The anti-resistance activity of inhibitors was investigated by the determination of the minimum inhibitory concentrations (MICs) of the β-lactam/inhibitor combination necessary to inhibit the growth of clinically-isolated bacteria resistant to third-generation cephalosporins via expression of class A or class C β-lactamases (Table 6).
(§4) Susceptibility testing was performed and interpreted following the guidelines of CLSI. (Clinical and Laboratory Standards Institute, Performance standards for antimicrobial susceptibility testing, 20th Informational Supplement, M100-S20 2010) The compounds were dissolved in 50% DMSO, and dilutions were performed using Muller-Hinton medium. An adequate final concentration was obtained to determine the minimum inhibitory concentrations (MICs). The concentration of DMSO was maintained below 5%. The inhibitors were tested for synergy with the third-generation β-lactams ceftazidime and cefotaxime against several clinical bacteria. The ratio of β-lactams to inhibitors was 1:4. Each value reported reflects the average of three independent experiments. […] The Friedman's test and the Wilcoxon signed rank test were used to compare MIC values. Statistical significance was established at p<0.05.
(§5) Table 6. MICs (μg/ml) of third-generation cephalosporins alone and in association with the compounds (ratio 1/4) for clinical bacteria. CTX, cefotaxime and CAZ, ceftazidime. ^1, AmpC-overproducing bacteria; ^2, CTX-M-14-producing E. coli; ^3, KPC-2-producing K. pneumoniae; ^4, OXA-48-producing K. pneumoniae; ^5, NDM-1-producing C. freundii.

Assay [3] has as its system E. coli, AmpC-overproducing. The description is as above. To be noted: antibiotic alone. It is filed as cell-based, Escherichia coli. The method, then:
as §3, §4, §5

For assay [4], the system named is E. coli 142, AmpC-overproducing. The assay is described as above. It counts as cell-based, Escherichia coli. To be noted: antibiotic alone. The method, then: as §3, §4, §5
Assay [5] concerns E. coli 146, AmpC-overproducing. The description is as above. It counts as cell-based, Escherichia coli. The settings on record: antibiotic alone. The method, then:
as §3, §4, §5

Assay [6] concerns E. coli 144, AmpC-overproducing. Described as above. It is filed as cell-based, Escherichia coli. The settings on record: antibiotic alone. The method, then:
as §3, §4, §5

The test system of assay [7] is E. coli R1, AmpC-overproducing. The assay is described as above. To be noted: antibiotic alone. It counts as cell-based, Escherichia coli. The method, then:
as §3, §4, §5

The subject of assay [8] is E. coli 145, AmpC-overproducing. The description is as above. It is filed as cell-based, Escherichia coli. The settings on record: antibiotic alone. The method, then:
as §3, §4, §5

Assay [9] has as its system E. coli overproducing chromosomally-mediated class C β-lactamase. Description: MIC of third-generation cephalosporins alone and with compounds 4 or 9 (Table 3). It counts as cell-based, Escherichia coli. To be noted: antibiotic alone.
From the text: as §1, §2

In assay [10] the test system is E. coli producing plasmid-mediated class A β-lactamase CTX-M-14. The description is as above. The settings on record: antibiotic alone. It counts as cell-based, Escherichia coli.
From the text: as §1, §2

The test system of assay [11] is C. freundii overproducing chromosomally-mediated class C β-lactamase. The assay is described as above. To be noted: antibiotic alone. It is filed as cell-based, Citrobacter freundii.
From the text: as §1, §2

In assay [12] the test system is E. cloacae overproducing chromosomally-mediated class C β-lactamase. The assay is described as above. It is filed as cell-based, Enterobacter cloacae. To be noted: antibiotic alone.
From the text: as §1, §2

Assay [13] relates to E. cloacae 135, AmpC-overproducing. Description: MIC of third-generation cephalosporins alone and with compounds (Table 6). It counts as cell-based, Enterobacter cloacae. The settings on record: antibiotic alone. The method, then: as §3, §4, §5
Assay [14] deals with E. cloacae, AmpC-overproducing. The description is as above. It counts as cell-based, Enterobacter cloacae. The settings on record: antibiotic alone. The method, then:
as §3, §4, §5

In assay [15] the test system is NDM-1-producing C. freundii. The description is as above. It counts as cell-based, Citrobacter freundii. To be noted: antibiotic alone. The method, then:
as §3, §4, §5

The test system of assay [16] is C. freundii 101, AmpC-overproducing. The assay is described as above. It counts as cell-based, Citrobacter freundii. To be noted: antibiotic alone. The method, then: as §3, §4, §5
The subject of assay [17] is C. freundii, AmpC-overproducing. The assay is described as above. It counts as cell-based, Citrobacter freundii. To be noted: antibiotic alone. The method, then: as §3, §4, §5
Assay [18] relates to P. aeruginosa, AmpC-overproducing. The assay is described as above. It is filed as cell-based, Pseudomonas aeruginosa. To be noted: antibiotic alone. The method, then: as §3, §4
Table 6. MICs (μg/ml) of third-generation cephalosporins alone and in association with the compounds (ratio 1/4) for clinical bacteria. […]

For assay [19], the system named is P. aeruginosa overproducing chromosomally-mediated class C β-lactamase. Description: MIC of third-generation cephalosporins alone and with compounds 4 or 9 (Table 3). It counts as cell-based, Pseudomonas aeruginosa. The settings on record: antibiotic alone.
From the text: as §1, §2

The subject of assay [20] is OXA-48-producing K. pneumoniae. Description: MIC of third-generation cephalosporins alone and with compounds (Table 6). The settings on record: antibiotic alone. It counts as cell-based, Klebsiella pneumoniae. The method, then: as §3, §4, §5
The test system of assay [21] is K. pneumoniae, AmpC-overproducing. The description is as above. It counts as cell-based, Klebsiella pneumoniae. The settings on record: antibiotic alone. The method, then: as §3, §4, §5
In assay [22] the test system is AmpC-overproducing Escherichia coli strain 4. Description: Mouse model of bacteremia and sepsis, survival. It is filed as in vivo, OF1 mice. The settings on record: 120 h post infection; ip at 0.5, 3.5, 6.5 h; imipenem 50 mg/kg, cefotaxime 50 mg/kg, cefotaxime:CR161 50:200 mg/kg. The method, then:
FIG. 17. Percentage of survival of mice infected with AmpC-overproducing Escherichia coli over the course of 5 days (120 h). Mice were inoculated by intraperitoneal injection with AmpC-overproducing Escherichia coli strain 4 (1±0.5 10^9 colony-forming units) and treated at 0.5, 3.5, 6.5 h after infection by intraperitoneal injection of 50 mg/kg imipenem (□, n=20), 50:200 mg/kg cefotaxime:CR161 combination (▪, n=17), 50 mg/kg cefotaxime (●, n=20) or sterile isotonic saline (◯, n=20).
Efficacy in a mouse model of infection. We had not observed such substantial reversal of bacterial resistance to β-lactams, across such a broad spectrum of clinical isolates, for previous series of boronic acid inhibitors of β-lactamase; indeed, this lack of efficacy had motivated this study. These new cell-culture MIC values inspired us to investigate the efficacy of one of these compounds in a mouse model of bacteremia and sepsis. […] Mice were treated with cefotaxime alone, cefotaxime combined with compound CR161, with sterile isotonic saline, and with imipenem as a reference treatment of systemic infections by cephalosporin-resistant enterobacteriaceae (FIG. 17); 20 mice were used in each clade. […]
OF1 mice 4-5 weeks of age and weighing 20-25 g were used in this study. […] The survival of mice in each group was monitored every 6 h for 5 days after infection. […]

SMILES strings stand for the structures.

As to `CC(C)(O/N=C(\C(=O)N[C@@H]1C(=O)N2C(C(=O)[O-])=C(C[n+]3ccccc3)CS[C@H]12)c1csc(N)n1)C(=O)O` [Ceftazidime], the “MIC, cephalosporin alone” value in assay [1] stood at 32 µg/mL; in [2], 2 µg/mL; in assay [3], 128 µg/mL; in [4], 32 µg/mL; in [5] it was 64 µg/mL; in assay [6] it was 64 µg/mL. For the same compound, the “MIC, cephalosporin alone” value in assay [7] was 8 µg/mL; in assay [8], 128 µg/mL; in assay [9], 64 µg/mL; in assay [10], 2 µg/mL; in [11] it was 64 µg/mL; in [12], 64 µg/mL. The “MIC, cephalosporin alone” value in [13] came out at 128 µg/mL; in assay [14], 64 µg/mL; in assay [15], 512 µg/mL; in assay [16], 128 µg/mL; in assay [17], 64 µg/mL; in [18] it was 32 µg/mL. In addition, the “MIC, cephalosporin alone” value came out at 32 µg/mL in assay [19], 256 µg/mL in [20] and 32 µg/mL in assay [21].
For `C[C@@H](O)[C@H]1C(=O)N2C(C(=O)O)=C(SCCN=CN)C[C@H]12` [Imipenem, imipenem], the survival in [22] is 90%.
